Measurements from the CheMixHub viscosity set.

Experiment: xn = mol fraction of the nth substance listed

COCCOCCOC + CCCCCCCCCCCCCCCC
viscosity [mPa·s], 101.33 kPa
Conditions | x1 = 0.1013 | x1 = 0.2067 | x1 = 0.3071 | x1 = 0.403 | x1 = 0.5078 | x1 = 0.6013 | x1 = 0.7004 | x1 = 0.7997 | x1 = 0.9021
298.15 K | 2.629 | 2.359 | 2.101 | 1.9 | 1.721 | 1.568 | 1.4 | 1.262 | 1.106
308.15 K | 2.107 | 1.885 | 1.712 | 1.552 | 1.414 | 1.29 | 1.173 | 1.058 | 0.934
318.15 K | 1.69 | 1.515 | 1.385 | 1.288 | 1.178 | 1.08 | 0.984 | 0.89 | 0.799

COCCOCCOC + CCCCCCCCCO
101 kPa
Conditions | viscosity [mPa·s]
293.15 K, x1 = 0.03749 | 9.714
293.15 K, x1 = 0.09901 | 7.617
293.15 K, x1 = 0.1933 | 5.424
293.15 K, x1 = 0.2971 | 3.978
293.15 K, x1 = 0.4043 | 3.002
293.15 K, x1 = 0.4948 | 2.43
293.15 K, x1 = 0.597 | 1.978
293.15 K, x1 = 0.6959 | 1.641
293.15 K, x1 = 0.822 | 1.36
293.15 K, x1 = 0.9135 | 1.201
293.15 K, x1 = 0.9364 | 1.177
303.15 K, x1 = 0.03786 | 6.826
303.15 K, x1 = 0.1002 | 5.439
303.15 K, x1 = 0.1822 | 4.165
303.15 K, x1 = 0.2967 | 3.028
303.15 K, x1 = 0.4005 | 2.353
303.15 K, x1 = 0.5022 | 1.911
303.15 K, x1 = 0.5943 | 1.603
303.15 K, x1 = 0.7009 | 1.347
303.15 K, x1 = 0.7989 | 1.167
303.15 K, x1 = 0.894 | 1.038
303.15 K, x1 = 0.9511 | 0.975
313.15 K, x1 = 0.03928 | 4.899
313.15 K, x1 = 0.1017 | 4.015
313.15 K, x1 = 0.198 | 3.05
313.15 K, x1 = 0.304 | 2.349
313.15 K, x1 = 0.3952 | 1.91
313.15 K, x1 = 0.5025 | 1.559
313.15 K, x1 = 0.5982 | 1.312
313.15 K, x1 = 0.6977 | 1.134
313.15 K, x1 = 0.7914 | 1.001
313.15 K, x1 = 0.8971 | 0.884
313.15 K, x1 = 0.9456 | 0.842

COCCOCCOC + CCCCCCCO
101 kPa
Conditions | viscosity [mPa·s]
293.15 K, x1 = 0.04527 | 5.749
293.15 K, x1 = 0.09631 | 4.758
293.15 K, x1 = 0.1964 | 3.424
293.15 K, x1 = 0.2974 | 2.659
293.15 K, x1 = 0.3948 | 2.201
293.15 K, x1 = 0.4982 | 1.826
293.15 K, x1 = 0.5957 | 1.573
293.15 K, x1 = 0.6957 | 1.385
293.15 K, x1 = 0.8053 | 1.255
293.15 K, x1 = 0.8916 | 1.169
293.15 K, x1 = 0.957 | 1.12
303.15 K, x1 = 0.05391 | 4.113
303.15 K, x1 = 0.09481 | 3.59
303.15 K, x1 = 0.198 | 2.635
303.15 K, x1 = 0.2974 | 2.097
303.15 K, x1 = 0.3935 | 1.765
303.15 K, x1 = 0.4894 | 1.515
303.15 K, x1 = 0.5993 | 1.294
303.15 K, x1 = 0.6968 | 1.153
303.15 K, x1 = 0.8032 | 1.053
303.15 K, x1 = 0.8887 | 0.999
303.15 K, x1 = 0.9613 | 0.958
313.15 K, x1 = 0.05044 | 3.122
313.15 K, x1 = 0.0869 | 2.793
313.15 K, x1 = 0.1869 | 2.128
313.15 K, x1 = 0.2981 | 1.689
313.15 K, x1 = 0.3977 | 1.428
313.15 K, x1 = 0.5081 | 1.228
313.15 K, x1 = 0.5937 | 1.096
313.15 K, x1 = 0.7001 | 0.974
313.15 K, x1 = 0.7989 | 0.903
313.15 K, x1 = 0.8893 | 0.848
313.15 K, x1 = 0.9538 | 0.819

ClC(Cl)C(Cl)Cl + CCCCCCCO
303.15 K, 101 kPa
Conditions | viscosity [mPa·s]
x2 = 0.1082 | 1.677
x2 = 0.2331 | 1.902
x2 = 0.3041 | 2.042
x2 = 0.3446 | 2.126
x2 = 0.4479 | 2.367
x2 = 0.5205 | 2.568
x2 = 0.6548 | 3.047
x2 = 0.781 | 3.616
x2 = 0.8562 | 4.014
x2 = 0.9304 | 4.446
